Where only a bound is given, the exact number is not on record here.

For one test, the target named is T1, ER (Homo sapiens, UniProt P03372).
T1 construct: host or cells: T47D and MCF7 human breast cancer cells
T1 sequence (P03372 1-595): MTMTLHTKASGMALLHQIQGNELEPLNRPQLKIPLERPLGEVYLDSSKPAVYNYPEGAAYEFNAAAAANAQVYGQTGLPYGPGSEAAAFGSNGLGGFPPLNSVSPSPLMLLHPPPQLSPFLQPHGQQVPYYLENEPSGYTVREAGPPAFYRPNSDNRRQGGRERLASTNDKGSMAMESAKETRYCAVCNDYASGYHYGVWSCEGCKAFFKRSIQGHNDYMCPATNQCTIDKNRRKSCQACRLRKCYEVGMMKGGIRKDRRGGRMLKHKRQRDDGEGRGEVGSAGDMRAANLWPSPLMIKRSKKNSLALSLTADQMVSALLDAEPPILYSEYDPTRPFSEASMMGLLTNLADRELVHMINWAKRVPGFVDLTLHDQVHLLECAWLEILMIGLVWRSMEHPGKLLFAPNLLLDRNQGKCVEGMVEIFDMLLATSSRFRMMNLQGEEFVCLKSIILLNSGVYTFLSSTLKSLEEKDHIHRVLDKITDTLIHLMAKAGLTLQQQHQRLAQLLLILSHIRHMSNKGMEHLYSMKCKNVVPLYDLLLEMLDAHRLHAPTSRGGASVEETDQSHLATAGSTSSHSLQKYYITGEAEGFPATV
Put plainly: ER degradation activity, in-cell western blot analysis in T47D cells. Format: cell-based. As to conditions: 16 hours, Table A does not say which cell line (T47D or MCF7), read-out: Potency (DC50). Summed up: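 In-cell western, T47D; compounds 16 h, 0.5% DMSO final; anti-rabbit-680/anti-mouse-800 secondaries, 1 h RT, dark; read on CLX imager. ER % vs untreated/DMSO wells (100%).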
Broadly, the DC50 is the midpoint of the concentration-degradation curve. In the case of `C[C@@H]1Cc2c([nH]c3ccccc23)[C@@H](c2c(F)cc(N3CC4(CCCN(CC(=O)N5Cc6cc7c(cc6C5)C(=O)N(C5CCC(=O)NC5=O)C7)C4)C3)cc2F)N1CC(F)F` (stereo partly drawn) [E 106, 3-(6-(2-(2-(4-((1R,3R)-2-(2,2-difluoroethyl)-3-methyl-2,3,4,9-tetrahydro-1H-pyrido[3,4-b]indol-1-yl)-3,5-difluorophenyl)-2,6-diazaspiro[3.5]nonan-6-yl)acetyl)-1-oxo-3,5,6,7-tetrahydropyrrolo[3,4-f]isoindol-2(1H)-yl)piperidine-2,6-dione], the DC50 was in the range of 10 to 100 nM.
With `O=C1CCC(N2C(=O)c3cc4c(cc3C2=O)CN(C(=O)CN2CC3(CCN(c5ccc([C@@H]6c7ccc(O)cc7CC[C@@H]6c6ccccc6)cc5)CC3)C2)CCC4)C(=O)N1` (mixture of isomers) [E 168, rac-2-(2,6-dioxopiperidin-3-yl)-6-(2-(7-(4-((1R,2S)-6-hydroxy-2-phenyl-1,2,3,4-tetrahydronaphthalen-1-yl)phenyl)-2,7-diazaspiro[3.5]nonan-2-yl)acetyl)-6,7,8,9-tetrahydroazepino[3,4-f]isoindole-1,3(2H,5H)-dione], the DC50 was above 100 nM.
Same read-out and setting: next, `C[C@@H]1Cc2c([nH]c3ccccc23)[C@@H](c2c(F)cc(N3CC[C@@H](CN4CCC(C(=O)N5Cc6cc7c(cc6C5)C(=O)N(C5CCC(=O)NC5=O)C7)CC4)C3)cc2F)N1CC(F)F` (stereo partly drawn) [E 90, 3-(6-(1-(((S)-1-(4-((1R,3R)-2-(2,2-difluoroethyl)-3-methyl-2,3,4,9-tetrahydro-1H-pyrido[3,4-b]indol-1-yl)-3,5-difluorophenyl)pyrrolidin-3-yl)methyl)piperidine-4-carbonyl)-1-oxo-3,5,6,7-tetrahydropyrrolo[3,4-f]isoindol-2(1H)-yl)piperidine-2,6-dione]: below 10 nM.
On to `O=C1CCC(N2C(=O)c3cc4c(cc3C2=O)CN(C(=O)CN2CCC3(CC2)CCN(c2ccc([C@@H]5c6ccc(B(O)O)cc6CC[C@@H]5c5ccccc5)cc2)CC3)C4)C(=O)N1` (mixture of isomers) [E 181, Rac-((5R,6S)-5-(4-(9-(2-(6-(2,6-dioxopiperidin-3-yl)-5,7-dioxo-3,5,6,7-tetrahydropyrrolo[3,4-f]isoindol-2(1H)-yl)-2-oxoethyl)-3,9-diazaspiro[5.5]undecan-3-yl)phenyl)-6-phenyl-5,6,7,8-tetrahydronaphthalen-2-yl)boronic acid], for which the half-maximal degradation concentration (DC50) was above 100 nM.
For `O=C1CCC(N2Cc3cc4c(cc3C2=O)CN(CC2CCN(c3ccc([C@@H]5c6ccc(O)cc6CC[C@@H]5c5ccccc5)cc3)CC2)C4)C(=O)N1` (mixture of isomers) [E 1, Rac-3-(6-((1-(4-((1R,2S)-6-hydroxy-2-phenyl-1,2,3,4-tetrahydronaphthalen-1-yl)phenyl)piperidin-4-yl)methyl)-1-oxo-3,5,6,7-tetrahydropyrrolo[3,4-f]isoindol-2(1H)-yl)piperidine-2,6-dione], the DC50 was above 100 nM.
Still for that read-out and setting: next, `O=C1CCC(N2C(=O)c3cc4c(cc3C2=O)CN(CC(=O)N2CCC3(CCC(Oc5ccc([C@@H]6c7ccc(O)cc7CC[C@@H]6c6ccccc6)cc5)CC3)CC2)C4)C(=O)N1` (stereo partly drawn) [E 224, 2-(2,6-dioxopiperidin-3-yl)-6-(2-(9-(4-((1R,2S)-6-hydroxy-2-phenyl-1,2,3,4-tetrahydronaphthalen-1-yl)phenoxy)-3-azaspiro[5.5]undecan-3-yl)-2-oxoethyl)-6,7-dihydropyrrolo[3,4-f]isoindole-1,3(2H,5H)-dione]: above 100 nM.
Turning to `O=C1CCC(N2C(=O)c3cc4c(cc3C2=O)CN(C2CCC(C(=O)N3CC(Oc5ccc([C@H]6c7ccc(O)cc7CC[C@H]6c6ccccc6)cc5)C3)CC2)C4)C(=O)N1` (stereo partly drawn) [E 384, 2-(2,6-dioxopiperidin-3-yl)-6-((1R,4s)-4-(3-(4-((1S,2R)-6-hydroxy-2-phenyl-1,2,3,4-tetrahydronaphthalen-1-yl)phenoxy)azetidine-1-carbonyl)cyclohexyl)-6,7-dihydropyrrolo[3,4-f]isoindole-1,3(2H,5H)-dione], the DC50 was in the range of 10 to 100 nM.
Regarding `O=C1CCC(N2Cc3cc4c(cc3C2=O)CN(C(=O)C2CCN(CC3CCN(c5ccc([C@@H]6c7ccc(O)cc7CC[C@@H]6c6ccccc6)cc5)CC3)CC2)C4)C(=O)N1` (stereo partly drawn) [E 284, 3-(6-(1-((1-(4-((1R,2S)-6-hydroxy-2-phenyl-1,2,3,4-tetrahydronaphthalen-1-yl)phenyl)piperidin-4-yl)methyl)piperidine-4-carbonyl)-1-oxo-3,5,6,7-tetrahydropyrrolo[3,4-f]isoindol-2(1H)-yl)piperidine-2,6-dione], the DC50 was above 100 nM.
For the compound `CN(C1CCN(c2ccc([C@@H]3c4ccc(O)cc4CC[C@@H]3c3ccccc3)cc2)CC1)C1CC(C(=O)N2Cc3cc4c(cc3C2)C(=O)N(C2CCC(=O)NC2=O)C4=O)C1` (stereo partly drawn) [E 362, 2-(2,6-dioxopiperidin-3-yl)-6-(3-((1-(4-((1R,2S)-6-hydroxy-2-phenyl-1,2,3,4-tetrahydronaphthalen-1-yl)phenyl)piperidin-4-yl)(methyl)amino)cyclobutane-1-carbonyl)-6,7-dihydropyrrolo[3,4-f]isoindole-1,3(2H,5H)-dione], the DC50 was above 100 nM.
Still for that read-out and setting: the result for `C[C@@H]1Cc2c([nH]c3ccccc23)[C@@H](c2cnc(N3CCC(CN4CCC(N5Cc6cc7c(cc6C5)C(=O)N(C5CCC(=O)NC5=O)C7=O)CC4)CC3)nc2)N1CC(F)(F)F` (stereo partly drawn) [E 256, 2-(2,6-dioxopiperidin-3-yl)-6-(1-((1-(5-((1R,3R)-3-methyl-2-(2,2,2-trifluoroethyl)-2,3,4,9-tetrahydro-1H-pyrido[3,4-b]indol-1-yl)pyrimidin-2-yl)piperidin-4-yl)methyl)piperidin-4-yl)-6,7-dihydropyrrolo[3,4-f]isoindole-1,3(2H,5H)-dione] reads 10 to 100 nM.

Staying with this test, now noted: compounds 16 hours, Table A does not say whether T47D or MCF7, read-out: Potency (DC50).
Consider `C[C@@H]1Cc2cc(O)ccc2[C@H](c2ccc(C(=O)N3CC4(CCN(C(=O)CN5Cc6cc7c(cc6C5)C(=O)N(C5CCC(=O)NC5=O)C7=O)CC4)C3)cc2)N1CC(F)F` (stereo partly drawn) [E 460, 6-(2-(2-(4-((1S,3R)-2-(2,2-difluoroethyl)-6-hydroxy-3-methyl-1,2,3,4-tetrahydroisoquinolin-1-yl)benzoyl)-2,7-diazaspiro[3.5]nonan-7-yl)-2-oxoethyl)-2-(2,6-dioxopiperidin-3-yl)-6,7-dihydropyrrolo[3,4-f]isoindole-1,3(2H,5H)-dione], for which the DC50 is 10 to 100 nM.
On the same count and under the same terms, next, `C[C@@H]1Cc2c([nH]c3ccccc23)[C@@H](c2ncc(C3=CCC(C(=O)N4CCC(N5Cc6cc7c(cc6C5)C(=O)N(C5CCC(=O)NC5=O)C7=O)CC4)CC3)cc2F)N1CC(C)(C)F` (stereo partly drawn) [E 484, 2-(2,6-dioxopiperidin-3-yl)-6-(1-(4-(5-fluoro-6-((1S,3R)-2-(2-fluoro-2-methylpropyl)-3-methyl-2,3,4,9-tetrahydro-1H-pyrido[3,4-b]indol-1-yl)pyridin-3-yl)cyclohex-3-ene-1-carbonyl)piperidin-4-yl)-6,7-dihydropyrrolo[3,4-f]isoindole-1,3(2H,5H)-dione]: above 100 nM.
Still for that read-out and setting: next, `C[C@@H]1Cc2cc(O)ccc2[C@@H](c2ccc(C3=CCC4(CC3)CCN(C(=O)CN3Cc5cc6c(cc5C3)C(=O)N(C3CCC(=O)NC3=O)C6=O)CC4)cc2)N1CC(F)F` (stereo partly drawn) [E 448, 6-(2-(9-(4-((1R,3R)-2-(2,2-difluoroethyl)-6-hydroxy-3-methyl-1,2,3,4-tetrahydroisoquinolin-1-yl)phenyl)-3-azaspiro[5.5]undec-8-en-3-yl)-2-oxoethyl)-2-(2,6-dioxopiperidin-3-yl)-6,7-dihydropyrrolo[3,4-f]isoindole-1,3(2H,5H)-dione]: above 100 nM.

Source of the values: patent publication US20240190880A1 (THE REGENTS OF THE UNIVERSITY OF MICHIGAN, priority 2021, published 2024).
